Like-named read-outs stand apart in the source and are kept apart here.
Columns and labels:
[1] = target: T1, chymotrypsin-like activity of 20S proteasomes in RPMI 8226 cells (Homo sapiens, UniProt P28074); assay: Chymotrypsin-like activity of 20S proteasomes in lysates of treated RPMI 8226 cells; format: cell-based; conditions: RPMI-8226, read-out: % inhibition of the chymotrypsin-like activity of 20S proteasomes in RPMI 8226 cell lysates
T1 construct: added to 2.5×10^5/ml RMPI 8226 cells; endogenous in cells; host or cells: RPMI 8226 (ATCC CCL-155)
T1 sequence (P28074 60-263): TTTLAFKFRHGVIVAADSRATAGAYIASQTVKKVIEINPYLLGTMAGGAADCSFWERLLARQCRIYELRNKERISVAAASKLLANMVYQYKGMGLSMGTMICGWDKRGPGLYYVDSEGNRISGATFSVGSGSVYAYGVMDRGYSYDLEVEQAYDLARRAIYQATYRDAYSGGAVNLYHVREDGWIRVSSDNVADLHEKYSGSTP
Description: RPMI 8226 (ATCC, CCL-155), the human multiple myeloma cell line, was cultured in RPMI 1640 medium supplemented with 2 mM L-glutamine, 100 units/ml penicillin, 100 μg/ml streptomycin, 1 mM sodium pyruvate and 10% heat inactivated fetal bovine serum at 37° C., 5% CO2 and 95% humidified air. […] DMSO was used as the vehicle control at a final concentration of 0.1%. Following 1 hr incubation of RMPI 8226 cells with the compounds, the cells were pelleted by centrifugation at 2,000 rpm for 10 sec at room temperature and washed 3× with ice-cold 1× Dulbecco's Phosphate-Buffered Saline (DPBS, Mediatech, Herndon, Va.). DPBS washed cells were lysed on ice for 15 min in lysis buffer (20 mM HEPES, 0.5 mM EDTA, 0.05% Triton X-100, pH 7.3) supplemented with protease inhibitor cocktail (Roche Diagnostics, Indianapolis, Ind.). Cell debris was pelleted by centrifugation at 14,000 rpm for 10 min, 4° C. and supernatants (=cell lysates) were transferred to a new tube. Protein concentration was determined by the BCA protein assay kit (Pierce Biotechnology, Rockford, Ill.). […] The released coumarin (AMC) was measured fluorometrically by using λex=390 nm and λem=460 nm. The assay was performed in a microtiter plate (Corning 3904) and followed kinetically with measurements every five minutes for 2 hr. The total amount of protein used for each assay was 20 μg. The final concentration of Suc-LLVY-AMC and DMSO was 20 μM and 0.2%, respectively.

[2] = target: T2, chymotrypsin-like activity of 20S proteasomes in PC-3 cells (Homo sapiens, UniProt P28074); assay: Chymotrypsin-like activity of 20S proteasomes in lysates of treated PC-3 cells; format: cell-based; conditions: PC-3, read-out: % inhibition of the chymotrypsin-like activity of 20S proteasomes in PC-3 cell lysates; 100 nM; 1 hr incubation
T2 construct: endogenous in cells; host or cells: PC-3 (ATCC CRL-1435)
Description: PC-3 (ATCC, CRL-1435), the human prostate cancer cell line, was cultured in F12K medium supplemented with 2 mM L-glutamine, 100 units/ml penicillin, 100 μg/ml streptomycin and 10% heat inactivated fetal bovine serum at 37° C., 5% CO2 and 95% humidified air. […] DMSO was used as the vehicle control at a final concentration of 0.1%. Following 1 hr incubation of PC-3 cells with the compounds, the cells were washed 3× with ice-cold 1× Dulbecco's Phosphate-Buffered Saline (DPBS, Mediatech, Herndon, Va.). […] Cell debris was pelleted by centrifugation at 14,000 rpm for 10 min, 4° C. and supernatants (=cell lysates) were transferred to a new tube. Protein concentration was determined by the BCA protein assay kit (Pierce Biotechnology, Rockford, Ill.). […] The released coumarin (AMC) was measured fluorometrically by using λex=390 nm and λem=460 nm. The assay was performed in a microtiter plate (Corning 3904) and followed kinetically with measurements every five minutes for 2 hr. The total amount of protein used for each assay was 20 μg. The final concentration of Suc-LLVY-AMC and DMSO was 20 μM and 0.2%, respectively. Results are presented as the percent inhibition of the 20S proteasome chymotrypsin-like activity relative to the DMSO control.

[3] = system: MES-SA/Dx5; assay: Cell growth inhibition (resazurin), multidrug resistant MES-SA/Dx5; format: cell-based, human; conditions: from EC50 values
[4] = system: HL-60; assay: Cell growth inhibition (resazurin), HL-60; format: cell-based, human; conditions: from EC50 values
[5] = system: RPMI 8226; assay: cells
Description: RPMI 8226 (CCL-155), HT-29 (HTB-38), and B16-F10 (CRL-6475) cells were purchased from ATCC. RPMI 8226 cells were maintained in RPMI 1640 media supplemented with 10% (v/v) FBS, 2 mM L-glutamine, 1 mM sodium pyruvate and Penicillin/Streptomycin at 100 IU/ml and 100 μg/ml, respectively. HT-29 cells were maintained in McCoys 5A supplemented with 10% (v/v) FBS, 2 mM L-glutamine, 1 mM sodium pyruvate, 1% (v/v) non-essential amino acids, 10 mM HEPES and Penicillin/Streptomycin at 100 IU/ml and 100 μg/ml, respectively. B16-F10 cells were maintained in DMEM supplemented with 10% (v/v) FBS, 2 mM L-glutamine, 10 mM HEPES and Penicillin/Streptomycin at 100 IU/ml and 100 μg/ml, respectively.
RPMI 8226 cells were seeded at 2×10^4 cells/well in 90 μl RPMI media containing 10% (v/v) FBS or 1% (v/v) FBS into 96 well black-walled, clear-bottom tissue culture plates. […] Formulae II-16, II-17 and Formula II-18 were serially diluted in media containing 1% or 10% FBS and added in triplicate to the test wells. […] The final concentration of Formula II-18 ranged from 2 μM to 630 pM.

[6] = system: HT-29; assay: Cell growth inhibition (resazurin), HT-29; conditions: from EC50 values
[7] = system: NCI-H292; assay: Cell growth inhibition (resazurin), NCI-H292; conditions: from EC50 values
[8] = system: MDA-MB-231; assay: Cell growth inhibition (resazurin), MDA-MB-231; conditions: from EC50 values

Q: What does the source list for C[C@H]1C(=O)N[C@@]2(C(O)[C@@H]3C=CCCC3)C(=O)O[C@@]12C (single isomer, unassigned) [Formula II-20]?
A: inhibition at 0.001 µM [1]: 3 ± 10%; inhibition at 0.005 µM [1]: 31 ± 9%; inhibition at 0.01 µM [1]: 37 ± 3%; inhibition at 0.05 µM [1]: 64 ± 3%; inhibition at 0.1 µM [1]: 66 ± 3%; inhibition at 0.5 µM [1]: 71 ± 2%; inhibition at 1 µM [1]: 73 ± 2%; inhibition at 10 µM [1]: 87 ± 4%; inhibition at 0.1 µM [2]: 57%

Q: Which results are given for C[C@@]12OC(=O)[C@]1([C@@H](O)[C@@H]1C=CCCC1)NC(=O)[C@@H]2CCBr [Formula II-18]?
A: cytotoxic activity against MES-SA/Dx5, in words [3]: cytotoxic activity; cytotoxic activity against HL-60, in words [4]: retained cytotoxic activity; cytotoxicity against RPMI 8226 in media containing 1% or 10% FBS, in words ([5]; 1% or 10% FBS): cytotoxic; EC50 ([5]; Homo sapiens, RPMI-8226, read-out: 1% FBS, EC50, RPMI 8226, media containing 1% FBS, single experiments): 15 nM; EC50 ([5]; Homo sapiens, RPMI-8226, read-out: 10% FBS, EC50, RPMI 8226, media containing 10% FBS, single experiments): 20 nM; EC50 ([5]; Homo sapiens, RPMI-8226, read-out: Mean 1% FBS, EC50, RPMI 8226, media containing 1% FBS, mean): 14 nM; EC50 ([5]; Homo sapiens, RPMI-8226, read-out: Mean 10% FBS, EC50, RPMI 8226, media containing 10% FBS, mean): 20 nM; change in the mean EC50, 10% FBS relative to 1% FBS ([5]; RPMI 8226): less than three fold decrease; EC50 ([5]; read-out: 1% FBS, EC50, RPMI 8226, media containing 1% FBS, single experiments): 13 nM; cytotoxicity against HT-29, in words [6]: cytotoxic; cytotoxicity against NCI-H292, in words [7]: cytotoxic; cytotoxicity against MDA-MB-231, in words [8]: cytotoxic

— patent publication US7544814B2, “[3.2.0] Heterocyclic compounds and methods of using the same” (Nereus Pharmaceuticals, Inc., priority 2004, dated 2009)
